# Results taken from US10898535B2, “Composition for inhibiting and preventing myopathy, containing bean leaf extract as active ingredient” (AMOREPACIFIC CORPORATION, priority 2015, dated 2021).
# Tests used:
# C2C12 (mouse myoblast) = assay: Ability to recover cell activity of myocyte in dexamethasone-induced muscle loss model (CCK8, absorbance 450 nm); assay type: cell-based; details: differentiated C2C12, dexamethasone 1 μM, dexibuprofen 100 μM, 24 hours, control group = dexamethasone only
# Procedure: In the present Experimental Example 1, the experiments were conducted to evaluate the recovery efficacy of the bean leaf extract on the decrease in cell activity of myocyte in a model of muscle loss induced by Dexamethasone. Dexamethasone is a kind of glucocorticoid, and increases expression of the Atrogin1 and Murf1 in vitro and in vivo to accelerate proteolytic degradation, thereby resulting in decrease in skeletal muscle, induction of myocyte death, and reduction of cell activity. Accordingly, an experimental model of dexamethasone to myocyte is a useful model for evaluating the function of sarcopenia and is widely used. The C2C12 (mouse myoblast) used in Experimental Example 1 was purchased from American Type Culture Collection (Manassas, Va., USA) and the cells were cultured in DMEM containing 10% FBS, 100 units/mL Penicillin, and […] streptomycin. Specific experimental methods are as follows. […] After 24 hours of treatment with the material, the medium was replaced with medium containing 10% solution of CCK8 […], and allowed to react for 10 minutes, and the cell activity was measured by measuring the absorbance at 450 nm. To increase the reliability, each sample was repeatedly measured three times to derive the average value.
# Atrogin1 gene (mRNA) = assay: Inhibition of expression of Atrogin1 gene (mRNA) in dexamethasone-induced muscle loss model (PCR); assay type: cell-based, mouse; details: differentiated C2C12, dexamethasone 1 μM, dexibuprofen 100 μM, 6 hours, control group = dexamethasone only
# Procedure: (§1) In the present Experimental Example 2, experiments were conducted to evaluate the inhibitory efficacy of the bean leaf extract against the overexpression of Atrogin1 and Murf1 mRNA in the muscle loss induced model by dexamethasone. The experimental group, the control group and the comparison group of Experimental Example 2 were prepared in the same manner as Experimental Example 1. Provided that, when 6 hours had elapsed since the treatment with each final material, RNA was extracted with trizol reagent (TRIzol agent, Invitrogen) after washing twice with cold saline, […] Expression patterns of each gene were measured using primers and probes (Applied biosystems) previously designed for genes of the synthesized cDNA and Atrogin1, Murf1, and GAPD. At this time, polymerase chain reaction (PCR) and analysis were performed using a Rotor-Gene 3000 system (Corbett Research, Sydney, Australia). To increase the reliability, each sample was repeatedly measured three times to derive the average value.
# Murf1 gene (mRNA) = assay: Inhibition of expression of Murf1 gene (mRNA) in dexamethasone-induced muscle loss model (PCR); assay type: cell-based, mouse; details: differentiated C2C12, dexamethasone 1 μM, dexibuprofen 100 μM, 6 hours, control group = dexamethasone only
# Procedure: as §1
structure (smiles),measurement,setting,value
"CC(C)Cc1ccc([C@H](C)C(=O)O)cc1 [Dexibuprofen, dexibuprofen]",Change in cell activity relative to control group (%),C2C12 (mouse myoblast),−4.1%
same,Change in cell activity relative to control group (%),C2C12 (mouse myoblast); listed as dexibuprofen,no recovery of myocyte activity is observed
same,Change in Atrogin1 gene expression relative to control group (%),Atrogin1 gene (mRNA),−2.6%
same,Change in Atrogin1 gene expression relative to control group (%),Atrogin1 gene (mRNA); listed as dexibuprofen,insignificant
same,Change in Murf1 gene expression relative to control group (%),Murf1 gene (mRNA),−3.3%
same,Change in Murf1 gene expression relative to control group (%),Murf1 gene (mRNA); listed as dexibuprofen,insignificant
